Laboratory results from patent US7087643B2, “Carbamate compounds for use in preventing or treating neuropathic pain and cluster and migraine headache-associated pain” (Ortho-McNeil Pharmaceutical Inc., priority 2001, dated 2006).

Tests used:
[1] = test system: L5 and L6 spinal nerve ligated rats (mechanical allodynia); test: Antiallodynic activity, Chung model, electronic Von Frey probes; assay type: in vivo, rat (Rj: Wistar (Han)); details: for % Change (force required to induce paw-withdrawal vs controls): ligatured paw
Text: (§1) The procedure used to test the antiallodynic activity of a compound of Formula (I) was the procedure for the measurement of allodynia found in the Chung Model (Kim S. H. and Chung J. M., An Experimental Model for Peripheral Neuropathy Produced by Segmental Spinal Nerve Ligation in the Rat, Pain, 1992, 50, 355–363).
Pathogen-free, male Rj: Wistar (Han) rats (300–380 g) were purchased from Elevage Janvier, 53940 Le Genest-Saint-Isle, France. The animals were maintained on a 12-h light/dark cycle (lights on from 7:00–19:00) in a controlled ambient temperature of 21±1° C., and relative humidity maintained at 40–70%. The animals had free access to food (UAR 113) and tap water until tested.
Rats were anesthetized (sodium pentobarbital 40 mg/kg i.p.). A ligature was tied tightly around the left L5 and L6 spinal nerves. The rats received an i.m. injection of 50 000 IU Penicillin (Diamant®) and were allowed to recover. This procedure results in mechanical allodynia in the left hind paw. Two weeks after the surgery, when the allodynic state was fully developed, rats were submitted consecutively to tactile stimulation of both the non-lesioned and the lesioned hindpaws.
The animals were placed on an elevated grid floor in Plexiglass boxes (19×11.5×13 cm). The tip of an electronic Von Frey probe (Bioseb, Model 1610) was then applied with increasing pressure to the lesioned and non-lesioned hindpaws and the force required to induce paw-withdrawal was automatically recorded. Prior to receiving drug treatment all animals were submitted to tactile stimulation and assigned to treatment groups matched on the basis of their pain response. This procedure was carried out 3 times for each paw and the mean paw force was calculated to provide basic scores per animal. Data were expressed as percent change (means±SEM) of effectiveness from the controls. Statistical analysis was done using non-paired and paired Student's t tests.
As summarized in Table 2 below, the enantiomer of Formula (Ic) was evaluated at the doses 10, 30 and 100 mg/kg (n=8), administered p.o. in a volume of 5 mL/kg. Morphine ([…]) was used as reference substance. Control animals received a p.o. administration of vehicle. The test was performed blind 30, 60 and 90 minutes after drug administration.

[2] = test system: L5 spinal nerve ligated rats (mechanical allodynia, Chung model of neuropathic pain); test: Antiallodynic activity, Chung model, manually applied von Frey probes; assay type: in vivo, rat (Sprague-Dawley); details: for % Maximum Possible Effect: time of peak effect
Experimental: as §1
Pathogen-free, male albino Sprague-Dawley rats, 200 g, were purchased from Harlan Industries (Indianapolis, Ind.) and maintained on a 12-h light/dark cycle (lights on at 06:00 h) in a climate-controlled room with food and water available ad libitum up to the time of the testing and food withdrawn 18 hr prior to testing.
The rats were anesthetized with isoflurane inhalant anesthesia. The left lumbar spinal nerve at the level of L5 was tightly ligated (4-0 silk suture) distal to the dorsal root ganglion and prior to entrance into the sciatic nerve, as described by Kim and Chung. The incisions were closed and the rats were allowed to recover under conditions described above. This procedure results in mechanical allodynia in the left hind paw. The sham operation, when performed, consisted of a similar surgical procedure lacking only the final ligation of the spinal nerve. Mechanical (tactile) allodynia was assessed by recording the pressure at which the affected paw (ipsilateral to the site of nerve injury) was withdrawn from graded stimuli (von Frey filaments ranging from 4.0 to 148.1 mN) applied by hand perpendicularly to the plantar surface of the paw (between the footpads) through wire-mesh observation cages. A paw withdrawal threshold (PWT) was determined by sequentially increasing and decreasing the stimulus strength and analyzing withdrawal data using a Dixon non-parametric test, as described by Chaplan et al (Chaplan S. R., Bach F. W., Pogrel J. W., Chung J. M. and Yaksh T. L., Quantitative Assessment of Tactile Allodynia in the Rat Paw, J Neurosci Meth, 1994, 53, 55–63). Normal rats, sham operated rats, and the contralateral paw of L5 ligated rats withstand at least 148.1 mN (equivalent to 15 g) of pressure without responding. […]

| Structure (SMILES) | % Change (force required to induce paw-withdrawal vs controls) ([1]; 10 mg/kg p.o., 60 minute post-dosing, n=8) [%] | % Change (force required to induce paw-withdrawal vs controls) ([1]; 30 mg/kg p.o., 60 minute post-dosing, n=8) [%] | % Change (force required to induce paw-withdrawal vs controls) ([1]; 100 mg/kg p.o., 60 minute post-dosing, n=8) [%] | Effect on non-ligatured paw withdrawal force ([1]; 10, 30 and 100 mg/Kg p.o., 60 minute post-dosing) | Anti-allodynic effect at 90 minutes post-dosing ([1]; 10, 30 and 100 mg/Kg p.o., 90 minutes post-dosing) | % Maximum Possible Effect ([2]; 30 mg/Kg po, 30 minutes after oral dosing, n=5) [%] | % Maximum Possible Effect ([2]; 100 mg/Kg po, 30 to 60 minutes after oral dosing, n=10) [%] | Duration of antiallodynic response ([2]; 30 and 100 mg/Kg po, responses measured at 0.5, 1, 2 and 4 hours post dosing) | % Change (force required to induce paw-withdrawal vs controls) ([1]; 128 mg/Kg morphine positive control) [%] |
| --- | --- | --- | --- | --- | --- | --- | --- | --- | --- |
| NC(=O)OC[C@H](OC(N)=O)c1ccccc1Cl [Formula (Ic)] | 69 | 115 | 88 | without affecting the non-ligatured paw | no longer present by 90 minutes post-dosing | 0 | 25.7 | responses returned to baseline by one hour |  |
| CN1CC[C@]23c4c5ccc(O)c4O[C@H]2[C@@H](O)C=C[C@H]3[C@H]1C5 [morphine, reference compound] |  |  |  |  |  |  |  |  | 38 |
